Experimental findings from patent US20230219986A1, “NOVEL AMINOPYRIMIDINE EGFR INHIBITOR” (QILU PHARMACEUTICAL CO., LTD., priority 2020, published 2023) are described below.

In experiment [1] the test system is EGFR wild-type cell line A431. Kind of experiment: Cell proliferation inhibition experiment (CellTiter-Glo), A431. The class given is cell-based. The note with it: Homo sapiens, A-431, 72 h, A431 cells, Cell Titer-Glo, read-out: A431 EGFR WT IC50. In short, it runs like this:
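A431 cells, 800 per well, were cultured 24 h and then exposed to serially diluted compound (0.1% DMSO final) for 72 h at 37° C., 5% CO2.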
In general terms: ATP-based viability assays read luminescence as a measure of living cells.

The target in experiment [2] is Ba/F3 L858R/T790M/C797S EGFR triple mutant cell line (Homo sapiens, UniProt P00533, T790M/C797S/L858R, cells depend on it). Kind of experiment: Cell proliferation inhibition experiment (CellTiter-Glo), Ba/F3 L858R/T790M/C797S. The class given is cell-based. The note with it: 72 hours, Cell Titer-Glo, read-out: Ba/F3 (L858R/T790M/C797S) IC50.
Experiment [3] deals with T1, wild-type EGFR (Homo sapiens, UniProt P00533).
T1 construct: purchased Signalchem
Put plainly: Enzymology experiment in vitro (HTRF/FRET kinase activity), wild-type EGFR. The class given is biochemical. The note with it: HTRF KinEASE-TK, read-out: EGFR (WT) IC50. In a few lines: (§1)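 HTRF KinEASE-TK format: EGFR enzyme preincubated with compound 10 min at room temperature, then peptide substrate plus ATP added for 40 min. Detection with EDTA, XL665-streptavidin and Eu³⁺-labeled antibody for 1 h.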
In general terms: In TR-FRET formats the signal depends on donor and acceptor labels being close together.

Experiment [4] addresses Ba/F3 De119/T790M/C797S EGFR triple mutant cell line (Homo sapiens, UniProt P00533, T790M/C797S, cells depend on it, form not given). Put plainly: Cell proliferation inhibition experiment (CellTiter-Glo), Ba/F3 De119/T790M/C797S. The class given is cell-based. The note with it: Ba/F3 Del19/T790M/C797S EGFR triple mutant cells, 72 hours, Cell Titer-Glo; read-out: Ba/F3 (Del19/T790M/C797S) IC50.

The target in experiment [5] is T2, L858R/T790M/C797S triple mutant EGFR (Homo sapiens, UniProt P00533, C797S/L858R/T790M).
T2 construct: purchased Signalchem
Kind of experiment: Enzymology experiment in vitro (HTRF/FRET kinase activity), L858R/T790M/C797S triple mutant EGFR. The class given is biochemical. The note with it: HTRF KinEASE-TK, read-out: EGFR (L858R/T790M/C797S) IC50. In short, it runs like this:
as §1

Ba/F3 De119/T790M/C797S EGFR triple mutant cell line, sequence (P00533 with tags, fused parts or gaps DEL746-750/T790M/C797S, form open): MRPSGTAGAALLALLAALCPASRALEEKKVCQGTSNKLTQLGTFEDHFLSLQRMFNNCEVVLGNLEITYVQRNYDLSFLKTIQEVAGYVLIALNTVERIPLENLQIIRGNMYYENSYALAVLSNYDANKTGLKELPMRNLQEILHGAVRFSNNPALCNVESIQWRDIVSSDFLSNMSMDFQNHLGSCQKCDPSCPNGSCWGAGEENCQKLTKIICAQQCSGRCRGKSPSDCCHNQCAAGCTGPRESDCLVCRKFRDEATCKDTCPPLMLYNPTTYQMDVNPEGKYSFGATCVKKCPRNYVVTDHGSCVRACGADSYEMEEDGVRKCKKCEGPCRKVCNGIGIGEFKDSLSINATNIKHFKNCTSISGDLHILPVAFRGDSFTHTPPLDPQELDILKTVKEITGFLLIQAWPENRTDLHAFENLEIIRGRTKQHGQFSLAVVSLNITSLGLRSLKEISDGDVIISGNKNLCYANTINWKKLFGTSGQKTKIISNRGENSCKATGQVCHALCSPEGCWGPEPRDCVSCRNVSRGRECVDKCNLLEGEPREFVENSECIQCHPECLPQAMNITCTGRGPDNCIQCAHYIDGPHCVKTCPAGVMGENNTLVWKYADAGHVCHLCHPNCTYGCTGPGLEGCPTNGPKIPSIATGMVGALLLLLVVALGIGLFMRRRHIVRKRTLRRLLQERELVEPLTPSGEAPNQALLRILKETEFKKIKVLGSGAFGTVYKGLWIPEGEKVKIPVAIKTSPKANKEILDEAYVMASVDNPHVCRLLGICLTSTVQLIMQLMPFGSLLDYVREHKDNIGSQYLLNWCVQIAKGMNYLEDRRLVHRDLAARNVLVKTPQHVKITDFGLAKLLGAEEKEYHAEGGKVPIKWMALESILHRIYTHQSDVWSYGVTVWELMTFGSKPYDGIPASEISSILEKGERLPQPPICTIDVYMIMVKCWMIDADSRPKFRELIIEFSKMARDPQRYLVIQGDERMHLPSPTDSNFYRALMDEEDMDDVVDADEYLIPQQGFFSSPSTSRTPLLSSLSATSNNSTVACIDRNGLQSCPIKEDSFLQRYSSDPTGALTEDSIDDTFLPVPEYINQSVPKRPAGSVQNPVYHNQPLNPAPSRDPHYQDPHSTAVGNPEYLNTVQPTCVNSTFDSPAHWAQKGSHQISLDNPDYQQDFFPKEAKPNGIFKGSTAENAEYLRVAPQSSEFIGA
T1 sequence (P00533 25-1210): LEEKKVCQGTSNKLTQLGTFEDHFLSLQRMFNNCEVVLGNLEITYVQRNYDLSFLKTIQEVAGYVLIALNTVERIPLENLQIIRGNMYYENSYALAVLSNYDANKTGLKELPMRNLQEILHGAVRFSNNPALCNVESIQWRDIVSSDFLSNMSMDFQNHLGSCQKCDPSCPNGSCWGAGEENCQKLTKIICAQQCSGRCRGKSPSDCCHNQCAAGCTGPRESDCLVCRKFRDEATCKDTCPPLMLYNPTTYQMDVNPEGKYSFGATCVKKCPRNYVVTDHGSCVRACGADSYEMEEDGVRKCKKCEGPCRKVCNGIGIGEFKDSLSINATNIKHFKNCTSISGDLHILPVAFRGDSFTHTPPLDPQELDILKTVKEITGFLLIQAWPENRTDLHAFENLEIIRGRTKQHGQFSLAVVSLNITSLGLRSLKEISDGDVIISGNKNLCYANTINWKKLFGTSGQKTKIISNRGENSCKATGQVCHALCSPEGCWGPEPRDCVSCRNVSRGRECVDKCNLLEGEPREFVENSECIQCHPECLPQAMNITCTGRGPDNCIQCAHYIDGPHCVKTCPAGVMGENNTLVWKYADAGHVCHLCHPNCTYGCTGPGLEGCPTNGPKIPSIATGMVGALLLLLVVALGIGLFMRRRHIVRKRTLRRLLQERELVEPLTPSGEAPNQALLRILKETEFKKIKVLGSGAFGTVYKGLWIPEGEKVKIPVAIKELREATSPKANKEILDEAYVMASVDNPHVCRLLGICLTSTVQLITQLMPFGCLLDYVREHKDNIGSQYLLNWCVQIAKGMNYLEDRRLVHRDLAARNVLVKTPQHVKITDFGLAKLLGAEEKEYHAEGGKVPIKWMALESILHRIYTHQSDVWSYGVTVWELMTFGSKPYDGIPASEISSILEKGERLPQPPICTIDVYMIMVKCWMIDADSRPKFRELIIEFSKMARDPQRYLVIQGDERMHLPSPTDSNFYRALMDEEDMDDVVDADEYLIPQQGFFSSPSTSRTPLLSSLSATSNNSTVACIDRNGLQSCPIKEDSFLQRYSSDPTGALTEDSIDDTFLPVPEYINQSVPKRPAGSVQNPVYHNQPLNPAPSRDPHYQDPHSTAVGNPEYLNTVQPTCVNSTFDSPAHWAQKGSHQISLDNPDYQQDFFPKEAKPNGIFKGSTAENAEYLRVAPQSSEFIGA
T2 sequence (P00533 25-1210 T790M/C797S/L858R): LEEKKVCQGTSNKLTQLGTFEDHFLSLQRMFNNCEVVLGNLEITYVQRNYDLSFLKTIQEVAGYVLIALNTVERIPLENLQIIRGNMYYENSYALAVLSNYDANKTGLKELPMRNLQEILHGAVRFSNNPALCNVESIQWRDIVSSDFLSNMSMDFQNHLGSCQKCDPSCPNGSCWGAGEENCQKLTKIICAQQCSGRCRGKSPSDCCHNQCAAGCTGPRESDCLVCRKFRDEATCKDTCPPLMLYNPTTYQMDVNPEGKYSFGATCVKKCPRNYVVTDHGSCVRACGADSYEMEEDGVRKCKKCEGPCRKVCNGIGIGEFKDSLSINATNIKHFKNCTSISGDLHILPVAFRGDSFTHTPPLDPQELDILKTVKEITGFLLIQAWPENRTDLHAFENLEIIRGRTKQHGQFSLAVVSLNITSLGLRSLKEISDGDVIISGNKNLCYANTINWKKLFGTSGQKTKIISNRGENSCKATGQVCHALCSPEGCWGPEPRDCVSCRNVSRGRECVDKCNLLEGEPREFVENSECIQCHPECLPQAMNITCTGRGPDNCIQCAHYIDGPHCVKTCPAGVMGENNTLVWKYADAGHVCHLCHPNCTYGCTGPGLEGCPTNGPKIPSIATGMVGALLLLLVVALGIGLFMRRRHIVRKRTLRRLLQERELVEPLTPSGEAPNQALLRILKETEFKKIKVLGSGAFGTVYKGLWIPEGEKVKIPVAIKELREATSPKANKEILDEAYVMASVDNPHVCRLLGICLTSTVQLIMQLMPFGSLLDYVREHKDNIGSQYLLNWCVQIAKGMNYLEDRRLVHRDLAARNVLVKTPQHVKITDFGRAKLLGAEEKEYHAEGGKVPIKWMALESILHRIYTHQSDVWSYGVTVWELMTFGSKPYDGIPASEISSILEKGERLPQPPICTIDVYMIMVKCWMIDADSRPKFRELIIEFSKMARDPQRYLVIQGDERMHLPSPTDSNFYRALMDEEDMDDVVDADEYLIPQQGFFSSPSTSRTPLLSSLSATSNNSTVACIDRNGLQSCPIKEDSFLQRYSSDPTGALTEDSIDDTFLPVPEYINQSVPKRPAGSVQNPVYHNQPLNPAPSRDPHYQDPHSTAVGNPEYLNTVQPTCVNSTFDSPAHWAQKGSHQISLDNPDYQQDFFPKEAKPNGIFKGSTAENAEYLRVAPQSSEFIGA
Ba/F3 L858R/T790M/C797S EGFR triple mutant cell line, sequence (P00533 whole entry T790M/C797S/L858R): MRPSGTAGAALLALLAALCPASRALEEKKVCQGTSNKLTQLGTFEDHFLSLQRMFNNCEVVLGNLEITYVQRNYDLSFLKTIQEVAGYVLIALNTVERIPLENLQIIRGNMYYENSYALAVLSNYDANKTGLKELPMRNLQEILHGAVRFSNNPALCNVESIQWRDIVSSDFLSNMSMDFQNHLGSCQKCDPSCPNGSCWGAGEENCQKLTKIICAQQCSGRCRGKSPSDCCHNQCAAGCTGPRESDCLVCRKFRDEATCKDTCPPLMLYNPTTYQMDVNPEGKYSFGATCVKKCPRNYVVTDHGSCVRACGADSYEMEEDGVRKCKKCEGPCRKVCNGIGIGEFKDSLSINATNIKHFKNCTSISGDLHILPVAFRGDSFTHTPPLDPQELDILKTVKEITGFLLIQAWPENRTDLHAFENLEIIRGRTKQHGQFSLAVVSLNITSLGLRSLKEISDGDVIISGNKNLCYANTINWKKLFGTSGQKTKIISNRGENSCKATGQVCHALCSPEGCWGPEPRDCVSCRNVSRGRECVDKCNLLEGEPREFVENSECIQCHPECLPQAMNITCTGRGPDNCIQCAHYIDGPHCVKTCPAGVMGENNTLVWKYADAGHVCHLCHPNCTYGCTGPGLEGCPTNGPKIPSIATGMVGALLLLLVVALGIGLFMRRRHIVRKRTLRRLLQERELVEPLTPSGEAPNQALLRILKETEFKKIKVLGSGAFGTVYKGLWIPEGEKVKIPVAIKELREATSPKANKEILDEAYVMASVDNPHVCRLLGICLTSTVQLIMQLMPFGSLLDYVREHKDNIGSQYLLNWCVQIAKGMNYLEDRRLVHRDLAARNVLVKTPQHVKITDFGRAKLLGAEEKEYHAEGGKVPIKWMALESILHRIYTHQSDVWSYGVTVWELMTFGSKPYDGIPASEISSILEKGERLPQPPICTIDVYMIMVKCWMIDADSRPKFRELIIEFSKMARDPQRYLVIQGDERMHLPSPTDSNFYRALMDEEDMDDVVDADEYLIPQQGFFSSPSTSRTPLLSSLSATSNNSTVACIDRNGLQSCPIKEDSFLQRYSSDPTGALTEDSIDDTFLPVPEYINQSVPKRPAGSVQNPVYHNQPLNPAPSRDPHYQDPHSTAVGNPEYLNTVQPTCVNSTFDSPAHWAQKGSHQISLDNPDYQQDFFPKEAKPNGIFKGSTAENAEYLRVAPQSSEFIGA

For the molecule `COc1cc(N2CCC(N(C)C(C)C(F)(F)F)CC2)c(-c2cnn(C)c2)cc1Nc1ncc(Br)c(Nc2ccc3nccnc3c2P(C)(C)=O)n1` (stereo not shown) [compound 173], the values for the IC50 in experiment [1], in experiment [3] and in experiment [5] were 738 nM, 50.7 nM and 6 nM, respectively. Also, the GI50 in experiment [2] was determined as 24.5 nM; in experiment [4] it was 11.2 nM.

For the molecule `COc1cc(N2CCN(C3(C)CC3)CC2)c(-c2cnn(C)c2)cc1Nc1ncc(Br)c(Nc2ccc3nccnc3c2P(C)(C)=O)n1` [compound 229], the IC50 in experiment [1] was 164 nM; in experiment [3] it was 8.53 nM; in experiment [5], 0.42 nM. The GI50 in experiment [2] came to 12.1 nM; in experiment [4] it was 3.76 nM.

`COc1cc(N2CCC(N3CCOCC3)CC2)c(-c2cnsc2)cc1Nc1ncc(Br)c(Nc2ccc3nccnc3c2P(C)(C)=O)n1` [compound 212]: the IC50 is 179 nM in experiment [1], 18.9 nM in experiment [3] and 0.33 nM in experiment [5]. The GI50 in experiment [2] turned out to be 25.1 nM; in experiment [4] it was 9.29 nM.

As to `Cn1cc(-c2cc(Nc3ncc(Br)c(Nc4ccc5nccnc5c4P(C)(C)=O)n3)c3c(c2)OCO3)cn1` [Compound 82, (6-((5-bromo-2-((6-(1-methyl-1H-pyrazol-4-yl)benzo[d][1,3]dioxol-4-yl)amino)pyrimidin-4-yl)amino)quinoxalin-5-yl)dimethylphosphine oxide], the IC50 in experiment [1] was 180 nM; in experiment [3], 18.2 nM; in experiment [5], 0.28 nM. Moreover, the GI50 was determined as 21.7 nM in experiment [2] and 7.85 nM in experiment [4].

As for `COc1cc(N2CCC(N3CCN(C)CC3)C(F)C2)c(-c2cnn(C)c2)cc1Nc1ncc(Br)c(Nc2ccc3nccnc3c2P(C)(C)=O)n1` (stereo not shown) [compound 189], the IC50 came to 128 nM in experiment [1], 1.08 nM in experiment [3] and 0.16 nM in experiment [5]. Further, the GI50 in experiment [2] stood at 23.6 nM; in experiment [4] it was 9.18 nM.

With `COc1cc(N2CCC(N3CC(CF)C3)CC2)c(-c2cnn(C)c2)cc1Nc1ncc(Br)c(Nc2ccc3nccnc3c2P(C)(C)=O)n1` [compound 204], the results for the IC50 in experiment [1], in experiment [3] and in experiment [5] were 66.9 nM, 1.57 nM and 0.25 nM, respectively. Also, the GI50 in experiment [2] turned out to be 11.2 nM; in experiment [4], 5.19 nM.

With `COc1cc(N2CCC(OCCN(C)C)CC2)c(-c2cnn(C)c2)cc1Nc1ncc(Br)c(Nc2ccc3nccnc3c2P(C)(C)=O)n1` [compound 198], the IC50 in experiment [1] was determined as 38 nM; in experiment [3] it was 0.62 nM; in experiment [5] it was 0.22 nM. Further, the GI50 in experiment [2] was 9.49 nM; in experiment [4], 4.26 nM.

As to `COc1cc(N2CC3CN(CCF)CC3C2)c(-c2cnn(C)c2)cc1Nc1ncc(Br)c(Nc2ccc3nccnc3c2P(C)(C)=O)n1` (stereo not shown) [compound 247, (6-((5-Bromo-2-((4-(5-(2-fluoroethyl)hexahydropyrrolo[3,4-c]pyrrol-2(1H)-yl)-2-methoxy-5-(1-methyl-1H-pyrazol-4-yl)phenyl)amino)pyrimidin-4-yl)amino)quinoxalin-5-yl)dimethylphosphine oxide], the IC50 in experiment [1] came out at 66.4 nM; in experiment [3], 5.81 nM; in experiment [5], 0.12 nM. Moreover, the GI50 was 7.76 nM in experiment [2] and 3.76 nM in experiment [4].

As for `COc1cc(N2CCN(C(C)=O)CC2)c(-c2cnn(C)c2)cc1Nc1ncc(Br)c(Nc2ccc3nccnc3c2P(C)(C)=O)n1` [compound 14], the IC50 is 150 nM in experiment [1], 1.06 nM in experiment [3] and 0.15 nM in experiment [5]. The values for the GI50 in experiment [2] and in experiment [4] were 13.6 nM and 5.98 nM, respectively.

`COCCN1CCN(c2cc(OC)c(Nc3ncc(Br)c(Nc4ccccc4NS(C)(=O)=O)n3)cc2-c2cnn(C)c2)CC1` [compound 132]: the IC50 was found to be 270 nM in experiment [1], 5.71 nM in experiment [3] and 0.07 nM in experiment [5]. Further, the GI50 in experiment [2] was found to be 30 nM; in experiment [4] it was 2.45 nM.

Take `COc1cc(N2CCOCC2)c(-c2cnn(C)c2)cc1Nc1ncc(C#N)c(Nc2ccc3nccnc3c2P(C)(C)=O)n1` [Compound 13, 4-((5-(dimethylphosphoryl)quinoxalin-6-yl)amino)-2-((2-methoxy-5-(1-methyl-1H-pyrazol-4-yl)-4-morpholinylphenyl)amino)pyrimidine-5-carbonitrile]: the IC50 turned out to be 398 nM in experiment [1], 7.62 nM in experiment [3] and 0.89 nM in experiment [5]. Besides, the GI50 in experiment [2] was determined as 84.3 nM; in experiment [4], 43.4 nM.

As to `COc1cc(N2CCOCC2)c(-c2cnn(C)c2)cc1Nc1ncc(Br)c(Nc2ccccc2NS(C)(=O)=O)n1` [Compound 80], the IC50 stood at 415 nM in experiment [1], 8.85 nM in experiment [3] and 0.01 nM in experiment [5]. Besides, the GI50 stood at 10.1 nM in experiment [2] and 5.37 nM in experiment [4].

On to `COc1cc(N2CCOCC2)c(-c2cnn(C)c2)cc1Nc1ncc(Br)c(Nc2cc3c(cc2P(C)(C)=O)CC3)n1` [Compound 79, (4-((5-bromo-2-((2-methoxy-5-(1-methyl-1H-pyrazol-4-yl)-4-morpholinylphenyl)amino)pyrimidin-4-yl)amino)bicyclo[4.2.0]octa-1,3,5-trien-3-yl)dimethylphosphine oxide], for which the IC50 in experiment [1] turned out to be 633 nM; in experiment [3] it was 29.9 nM; in experiment [5], 0.45 nM. The GI50 in experiment [2] was 13.5 nM; in experiment [4] it was 9.89 nM.

Consider `COc1cc(N2CCC(N3CCC(OC)CC3)CC2)c(-c2cnn(C)c2)cc1Nc1ncc(Br)c(Nc2ccc3nccnc3c2P(C)(C)=O)n1` [compound 179], for which the IC50 in experiment [1] was 54.3 nM; in experiment [3], 1.48 nM; in experiment [5], 0.4 nM. The GI50 in experiment [2] came to 6.84 nM; in experiment [4] it was 1.37 nM.

Regarding `COc1cc(N2CCC3CCN(CCOC(C)C)C3C2)c(-c2cnn(C)c2)cc1Nc1ncc(Br)c(Nc2ccc3nccnc3c2P(C)(C)=O)n1` (stereo not shown) [compound 206], the IC50 was determined as 298 nM in experiment [1], 8.46 nM in experiment [3] and 0.62 nM in experiment [5]. The results for the GI50 in experiment [2] and in experiment [4] were 30.2 nM and 7.62 nM, respectively.

Take `CN1CCN(c2noc3c(Nc4ncc(Br)c(Nc5ccc6nccnc6c5P(C)(C)=O)n4)cc(-c4cnn(C)c4)cc23)CC1` [compound 200]: the figures for the IC50 in experiment [1], in experiment [3] and in experiment [5] were 69.6 nM, 7.56 nM and 0.19 nM, respectively. For the same molecule, the GI50 in experiment [2] worked out at 22 nM; in experiment [4], 7.47 nM.

As to `COc1cc(N2CCC3(CC2)CO[C@@H](C)[C@@H]3N(C)C)c(-c2cnn(C)c2)cc1Nc1ncc(Br)c(Nc2ccc3nccnc3c2P(C)(C)=O)n1` (stereo in doubt) [compound 201], the figures for the IC50 in experiment [1], in experiment [3] and in experiment [5] were 120 nM, 6.92 nM and 0.74 nM, respectively. Also, the GI50 was determined as 3.7 nM in experiment [2] and 2.22 nM in experiment [4].

With `Cn1cc(-c2cc(Nc3ncc(Br)c(Nc4ccc5nccnc5c4P(C)(C)=O)n3)c3c(c2N2CCOCC2)CCO3)cn1` [Compound 17, (6-((5-bromo-2-((5-(1-methyl-1H-pyrazol-4-yl)-4-morpholino-2,3-dihydrobenzofuran-7-yl)amino)pyrimidin-4-yl)amino)quinoxalin-5-yl)dimethylphosphine oxide], the IC50 in experiment [1] amounted to 67.8 nM; in experiment [3], 3.61 nM; in experiment [5], 0.08 nM. In addition, the figures for the GI50 in experiment [2] and in experiment [4] were 2.13 nM and 1.28 nM, respectively.

As to `COc1cc(N2CCN(C(C)C)C(CF)C2)c(-c2cnn(C)c2)cc1Nc1ncc(Br)c(Nc2ccc3nccnc3c2P(C)(C)=O)n1` (stereo not shown) [compound 164], the IC50 in experiment [1] was determined as 195 nM; in experiment [3] it was 5.3 nM; in experiment [5], 0.73 nM. In addition, the GI50 in experiment [2] came to 8.26 nM; in experiment [4], 3.22 nM.

For the molecule `COc1cc(N2CCC3CCN(CC4CC4)C3C2)c(-c2cnn(C)c2)cc1Nc1ncc(Br)c(Nc2ccc3nccnc3c2P(C)(C)=O)n1` (single isomer, unassigned) [234a], the IC50 in experiment [1] amounted to 42.4 nM; in experiment [3], 5.04 nM; in experiment [5], 0.32 nM. The values for the GI50 in experiment [2] and in experiment [4] were 3.91 nM and 2.05 nM, respectively.

`COc1cc(N2CCOC(C)C2)c(-c2cnn(C)c2)cc1Nc1ncc(Br)c(Nc2ccc3nccnc3c2P(C)(C)=O)n1` (stereo not shown) [compound 134]: the IC50 in experiment [1] came to 316 nM; in experiment [3], 3.57 nM; in experiment [5] it was 0.21 nM. The GI50 stood at 7.82 nM in experiment [2] and 1.02 nM in experiment [4].

As to `COc1cc(N2CCC3CCN(C)C3C2)c(-c2cnn(C)c2)cc1Nc1ncc(Br)c(Nc2ccc3nccnc3c2P(C)(C)=O)n1` (stereo not shown) [compound 168], the IC50 in experiment [1] turned out to be 67.4 nM; in experiment [3], 2.57 nM; in experiment [5], 0.35 nM. The GI50 in experiment [2] is 4.2 nM; in experiment [4], 0.71 nM.

For the molecule `COc1cc(N2CCC3(CCOC3)C2)c(-c2cnn(C)c2)cc1Nc1ncc(Br)c(Nc2ccc3nccnc3c2P(C)(C)=O)n1` (stereo not shown) [compound 203], the values for the IC50 in experiment [1], in experiment [3] and in experiment [5] were 351 nM, 21.2 nM and 0.47 nM, respectively. For the same molecule, the figures for the GI50 in experiment [2] and in experiment [4] were 20 nM and 10.6 nM, respectively.
